Reference: patent US20040076974A1, “Liver necrosis predictive genes” (priority 2002, published 2004)
Where two headings read alike, the source gives them in different places.

System: Sprague Dawley rats
Procedure: Sprague Dawley rats Crl:CD from Charles River, Raleigh, N.C. were divided into treated rats that receive a specific concentration of the compound (see Table 1) and. control rats that only received the vehicle in which the compound is mixed (e.g., saline).
At specified timepoints (6 h, 24 h and 72 h) after administration (intraperitoneal route) of the compound, a set number of rats (usually 3 control and 3 treated) were euthanized and tissues collected. Each, rat was heavily sedated with an overdose of CO2 by inhalation and a maximum amount of blood drawn. Exsanguination of the rat by this drawing of blood kills the rat. The method of collecting the tissues is very important and ensures preserving the quality of the mRNA in the tissues. The body of the rat was then opened up and prosectors rapidly removed the tissues (including) and immediately placed them into liquid nitrogen. […] The organs/tissues were then packaged into well-labeled plastic freezer quality bags and stored at −80 degrees until needed for isolation of the mRNA from a portion of the organ/tissue sample.
Histopathology scores for each animal (assigned on a compound-dose basis as indicated in Table 1) were entered with gene expression data by using the GeneSpring™ ‘Drawn Gene’ function. Correlations between the histopathology scores and gene expression were conducted with the distance measures listed below:
Toxicity classifications were entered for training and test set as a parameter column. Toxicity, as defined by observation of necrosis in the at 72 hours after treatment, was entered as a “yes” or “no” for each animal in a compound-dose group. Additionally, a parameter column for random histopathology classification was designated. This was done by randomly assigning the same number of “yes” and “no” calls to the individual animals.

[1] = 72 h; compound-dose group; dose BRB 800, BUS 14, CAD 1, CAR 16
[2] = compound-dose group at 72 h; BUS 14, CAD 1, CAR 16 (dose codes, Table 1)
[3] = rat, intraperitoneal, dose 20 mg/kg, 72 hours after treatment
[4] = rat, intraperitoneal, dose 20 mg/kg, 72 hours; 1 = not remarkable, 2 and higher increasing severity
[5] = compound-dose group at 72 h; dose 20
[6] = compound-dosegroup at 72 h, dose 20

[Cl][Cd][Cl] [cadmium chloride]
Liver Toxicity Necrosis Classification [1]: no
Liver Toxicity Necrosis Classification (72 h; compound-dose group; dose CAD 2): no
Liver Toxicity Necrosis Classification (compound-dose group at 72 h, dose 1; no = no necrosis observed): no
Liver Toxicity Necrosis Classification (compound-dose group at 72 h, dose 4; yes = necrosis observed): yes
Liver Toxicity Necrosis Classification [2]: no
Liver Necrosis (rat, intraperitoneal, dose 1 mg/kg, 72 hours after treatment): no
Score (histopathology liver necrosis severity score) (rat, intraperitoneal, dose 1 mg/kg, 72 hours; 1 = not remarkable, 2 and higher increasing severity): 1
Liver Necrosis (rat, intraperitoneal, dose 2 mg/kg, 72 hours after treatment): No
Score (histopathology liver necrosis severity score) (rat, intraperitoneal, dose 2 mg/kg, 72 hours; 1 = not remarkable, 2 and higher increasing severity): 1
Liver Necrosis (rat, intraperitoneal, dose 4 mg/kg, 72 hours after treatment): Yes
Score (histopathology liver necrosis severity score) (rat, intraperitoneal, dose 4 mg/kg, 72 hours; 1 = not remarkable, 2 and higher increasing severity): 3

CN(C)N=O [dimethylnitrosamine]
Liver Toxicity Necrosis Classification (72 h, dose 20): yes
Liver Toxicity Necrosis Classification (72 h; dose 20): yes
Liver Toxicity Necrosis Classification (compound-dose group at 72 h; CCL4 1000, DMN 20, LPS 8): yes
Liver Necrosis [3]: Yes
Score (histopathology liver necrosis severity score) [4]: 9

Cn1c(=O)c2[nH]cnc2n(C)c1=O [theophylline]
Score (histopathology liver necrosis severity score) (Sprague Dawley, rat, in vivo, ip, 25 mg/kg, 72 h): 1
Score (histopathology liver necrosis severity score) (Sprague Dawley, rat, in vivo, ip, 100 mg/kg, 72 h): 1
Liver Toxicity Necrosis Classification (rat, in vivo): no
Liver Necrosis (rat, in vivo, ip, 25 mg/kg): no
Liver Necrosis (rat, in vivo, ip, 100 mg/kg): no

CCO [ethanol]
Liver Toxicity Necrosis Classification (rat, in vivo): no
Liver Necrosis (rat, in vivo, ip): no
Score (histopathology liver necrosis severity score) (rat, in vivo, ip): 1

Cn1cnc([N+](=O)[O-])c1Sc1ncnc2nc[nH]c12 [azathioprine]
Score (histopathology liver necrosis severity score) (Sprague Dawley, rat, in vivo, ip, 50 mg/kg, 72 h): 1
Score (histopathology liver necrosis severity score) (Sprague Dawley, rat, in vivo, ip, 200 mg/kg, 72 h): 1
Liver Toxicity Necrosis Classification (rat, in vivo): no
Liver Necrosis (rat, in vivo, ip, 50 mg/kg): No
Liver Necrosis (rat, in vivo, ip, 200 mg/kg): No

C[C@@H]1[C@H](O)[C@@H](C)/C=C/C=C/C=C/C=C/C=C/C=C/C=C/[C@H](O[C@@H]2O[C@H](C)[C@@H](O)[C@H](N)[C@@H]2O)C[C@@H]2O[C@](O)(C[C@@H](O)C[C@@H](O)[C@H](O)CC[C@@H](O)C[C@@H](O)CC(=O)O[C@H]1C)C[C@H](O)[C@H]2C(=O)O [amphotericin B]
Liver Toxicity Necrosis Classification (72 h; dose 5): no
Liver Toxicity Necrosis Classification (72 h; dose 20): no
Liver Toxicity Necrosis Classification (AMPB 20; 72 h): no
Liver Toxicity Necrosis Classification (compound-dose group at 72 h; dose 5): no
Liver Toxicity Necrosis Classification [5]: no
Liver Toxicity Necrosis Classification (compound-dosegroup at 72 h, dose 5): no
Liver Toxicity Necrosis Classification [6]: no
Liver Necrosis (rat, intraperitoneal, dose 5 mg/kg, 72 hours after treatment): No
Score (histopathology liver necrosis severity score) (rat, intraperitoneal, dose 5 mg/kg, 72 hours; 1 = not remarkable, 2 and higher increasing severity): 1
Liver Necrosis [3]: No
Score (histopathology liver necrosis severity score) [4]: 1

N.N.[Cl][Pt][Cl] [cisplatin]
Liver Necrosis (rat, intraperitoneal, dose 10 mg/kg, 72 hours after treatment): no
Score (histopathology liver necrosis severity score) (rat, intraperitoneal, dose 10 mg/kg, 72 hours; 1 = not remarkable, 2 and higher increasing severity): 1

polyethylene glycol
Liver Necrosis (rat, in vivo, ip): no

CN(N=O)C(=O)N[C@H]1C(O)O[C@H](CO)[C@@H](O)[C@@H]1O (mixture of isomers) [streptozotocin]
Liver Toxicity Necrosis Classification (compound-dose group at 72 h, dose 20): no
Liver Toxicity Necrosis Classification (compound-dose group at 72 h, dose 75): no
Liver Toxicity Necrosis Classification [5]: no
Liver Toxicity Necrosis Classification (compound-dose group at 72 h; dose 75): no
Liver Toxicity Necrosis Classification [6]: no
Liver Toxicity Necrosis Classification (compound-dosegroup at 72 h, dose 75): no
Liver Toxicity Necrosis Classification (compound-dosegroup at 72 h; dose PEG 5000, PUR 38, QUIN 25, STRZ 20): no
Liver Necrosis [3]: no
Score (histopathology liver necrosis severity score) [4]: 1
Liver Necrosis (rat, intraperitoneal, dose 75 mg/kg, 72 hours after treatment): no
Score (histopathology liver necrosis severity score) (rat, intraperitoneal, dose 75 mg/kg, 72 hours; 1 = not remarkable, 2 and higher increasing severity): 1

CC(=O)N1CCN(c2ccc(OCC3COC(Cn4ccnc4)(c4ccc(Cl)cc4Cl)O3)cc2)CC1 (stereo not shown) [ketoconazole]
Score (histopathology liver necrosis severity score) (Sprague Dawley, rat, in vivo, ip, 20 mg/kg, 72 h): 1
Score (histopathology liver necrosis severity score) (Sprague Dawley, rat, in vivo, ip, 80 mg/kg, 72 h): 1
Liver Toxicity Necrosis Classification (rat, in vivo): no
Liver Necrosis (rat, in vivo, ip, 20 mg/kg): no
Liver Necrosis (rat, in vivo, ip, 80 mg/kg): no

O=NN(CCCl)C(=O)NCCCl [carmustine]
Liver Toxicity Necrosis Classification (72 h, dose 16): no
Liver Toxicity Necrosis Classification [1]: no
Liver Toxicity Necrosis Classification [2]: no
Liver Toxicity Necrosis Classification (compound-dosegroup at 72 h; dose 16): no
Liver Necrosis (rat, intraperitoneal, dose 16 mg/kg, 72 hours after treatment): no
Score (histopathology liver necrosis severity score) (rat, intraperitoneal, dose 16 mg/kg, 72 hours; 1 = not remarkable, 2 and higher increasing severity): 1

CCOC(=O)C(C)(C)Oc1ccc(Cl)cc1 [clofibrate]
Score (histopathology liver necrosis severity score) (Sprague Dawley, rat, in vivo, ip, 75 mg/kg, 72 h): 1
Score (histopathology liver necrosis severity score) (Sprague Dawley, rat, in vivo, ip, 250 mg/kg, 72 h): 1
Liver Toxicity Necrosis Classification (rat, in vivo): no
Liver Necrosis (rat, in vivo, ip, 75 mg/kg): no
Liver Necrosis (rat, in vivo, ip, 250 mg/kg): no
